Test results taken from patent publication US6737383B1, “Herbicidal oxadiazolidines” (priority 1999, dated 2004).

How the values were obtained:
blackgrass = assay: Test B pre/postemergence blackgrass; format: in vivo, Alopecurus myosuroides
How it was run: (§1)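 Herbicidal effect was estimated by eye on a ten-point control scale after plants spent twelve to sixteen days in a greenhouse following soil or foliar treatment. Foliar sprays targeted plants at one to four leaves; all doses were formulated in a non-phytotoxic solvent with surfactant.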

pigweed = assay: Test B pre/postemergence pigweed; format: in vivo, Amaranthus retroflexus
How it was run: as §1

crabgrass = assay: Test B pre/postemergence crabgrass; format: in vivo, Digitaria sanguinalis
How it was run: as §1

sugar beet = assay: Test B pre/postemergence sugar beet; format: in vivo, Beta vulgaris
How it was run: as §1

velvetleaf = assay: Test B pre/postemergence velvetleaf; format: in vivo, Abutilon theophrasti
How it was run: as §1

cocklebur = assay: Test B pre/postemergence cocklebur; format: in vivo, Xanthium strumarium
How it was run: as §1

purple nutsedge = assay: Test B pre/postemergence purple nutsedge; format: in vivo, Cyperus rotundus
How it was run: as §1

morningglory = assay: Test B pre/postemergence morningglory; format: in vivo, Ipomoea hederacea
How it was run: as §1

corn = assay: Test B pre/postemergence corn; format: in vivo, Zea mays
How it was run: as §1

rape = assay: Test B pre/postemergence rape; format: in vivo, Brassica napus
How it was run: as §1

soybean = assay: Test B pre/postemergence soybean; format: in vivo, Glycine max
How it was run: as §1

wheat = assay: Test B pre/postemergence wheat; format: in vivo, Triticum aestivum
How it was run: as §1

giant foxtail = assay: Test B pre/postemergence giant foxtail; format: in vivo, Setaria faberii
How it was run: as §1

[1] = Postemergence, Rate 125 g/ha, scale of 0 to 10 where 0 is no effect and 10 is complete control
[2] = Preemergence, Rate 62 g/ha, scale of 0 to 10 where 0 is no effect and 10 is complete control
[3] = Preemergence, Rate 125 g/ha, 0 is no effect, 10 is complete control
[4] = Preemergence, Rate 250 g/ha, scale 0 to 10, 0 is no effect, 10 is complete control
[5] = Preemergence, Rate 500 g/ha, scale 0 to 10 (0 no effect, 10 complete control)
[6] = Rate 62 g/ha, Postemergence, scale of 0 to 10 where 0 is no effect and 10 is complete control
[7] = Rate 250 g/ha, Postemergence, scale 0 to 10, 0 is no effect, 10 is complete control
[8] = Rate 500 g/ha, Postemergence, scale 0 to 10

CC1CCCCC1n1c(=O)on(C(=O)N(c2ccccc2)C(C)C)c1=O (stereo not shown) [Compound 162]
Blackgrass plant response rating (blackgrass; [1]): 0 | Blackgrass plant response rating (blackgrass; [2]): 0 | Blackgrass plant response rating (0 to 10 scale) (blackgrass; [3]): 2 | Blackgrass plant response rating (blackgrass; [4]): 2 | Blackgrass plant response rating (blackgrass; [5]): 3 | Blackgrass plant response rating (blackgrass; [6]): 0 | Plant response rating, Blackgrass (blackgrass; [7]): 0 | Blackgrass plant response rating (blackgrass; [8]): 6 | Redroot pigweed plant response rating (pigweed; [1]): 0 | Redroot pigweed plant response rating (pigweed; [2]): 0 | Redroot pigweed plant response rating (0 to 10 scale) (pigweed; [3]): 0 | Redroot pigweed plant response rating (pigweed; [4]): 0 | Redroot pigweed plant response rating (pigweed; [5]): 7 | Redroot pigweed plant response rating (pigweed; [6]): 0 | Plant response rating, Redroot pigweed (pigweed; [7]): 0 | Redroot pigweed plant response rating (pigweed; [8]): 0 | Crabgrass plant response rating (crabgrass; [1]): 2 | Crabgrass plant response rating (crabgrass; [2]): 6 | Crabgrass plant response rating (0 to 10 scale) (crabgrass; [3]): 8 | Crabgrass plant response rating (crabgrass; [4]): 9 | Crabgrass plant response rating (crabgrass; [5]): 10 | Crabgrass plant response rating (crabgrass; [6]): 0 | Plant response rating, Crabgrass (crabgrass; [7]): 6 | Crabgrass plant response rating (crabgrass; [8]): 8 | Sugarbeets plant response rating (sugar beet; [1]): 0 | Sugarbeets plant response rating (sugar beet; [2]): 0 | Sugarbeets plant response rating (0 to 10 scale) (sugar beet; [3]): 0 | Sugarbeets plant response rating (sugar beet; [4]): 0 | Sugarbeets plant response rating (sugar beet; [5]): 0 | Sugarbeets plant response rating (sugar beet; [6]): 0 | Plant response rating, Sugarbeets (sugar beet; [7]): 0 | Sugarbeets plant response rating (sugar beet; [8]): 0 | Velvetleaf plant response rating (velvetleaf; [2]): 0 | Velvetleaf plant response rating (0 to 10 scale) (velvetleaf; [3]): 0 | Velvetleaf plant response rating (velvetleaf; [4]): 0 | Velvetleaf plant response rating (velvetleaf; [5]): 0 | Plant response rating, Velvetleaf (velvetleaf; [7]): 4 | Velvetleaf plant response rating (velvetleaf; [8]): 4 | Cocklebur plant response rating (cocklebur; [1]): 0 | Cocklebur plant response rating (cocklebur; [2]): 0 | Cocklebur plant response rating (0 to 10 scale) (cocklebur; [3]): 0 | Cocklebur plant response rating (cocklebur; [4]): 0 | Cocklebur plant response rating (cocklebur; [5]): 0 | Cocklebur plant response rating (cocklebur; [6]): 0 | Plant response rating, Cocklebur (cocklebur; [7]): 0 | Cocklebur plant response rating (cocklebur; [8]): 2 | Nutsedge plant response rating (purple nutsedge; [1]): 0 | Nutsedge plant response rating (purple nutsedge; [2]): 0 | Nutsedge plant response rating (0 to 10 scale) (purple nutsedge; [3]): 0 | Nutsedge plant response rating (purple nutsedge; [4]): 0 | Nutsedge plant response rating (purple nutsedge; [5]): 0 | Nutsedge plant response rating (purple nutsedge; [6]): 0 | Plant response rating, Nutsedge (purple nutsedge; [7]): 0 | Nutsedge plant response rating (purple nutsedge; [8]): 2 | Morningglory plant response rating (morningglory; [1]): 6 | Morningglory plant response rating (morningglory; [2]): 0 | Morningglory plant response rating (0 to 10 scale) (morningglory; [3]): 0 | Morningglory plant response rating (morningglory; [4]): 0 | Morningglory plant response rating (morningglory; [5]): 0 | Morningglory plant response rating (morningglory; [6]): 6 | Plant response rating, Morningglory (morningglory; [7]): 10 | Morningglory plant response rating (morningglory; [8]): 10 | Corn plant response rating (corn; [1]): 0 | Corn plant response rating (corn; [2]): 0 | Corn plant response rating (0 to 10 scale) (corn; [3]): 0 | Corn plant response rating (corn; [4]): 0 | Corn plant response rating (corn; [5]): 0 | Corn plant response rating (corn; [6]): 0 | Plant response rating, Corn (corn; [7]): 0 | Corn plant response rating (corn; [8]): 0 | Rape plant response rating (rape; [1]): 0 | Rape plant response rating (rape; [2]): 0 | Rape plant response rating (0 to 10 scale) (rape; [3]): 2 | Rape plant response rating (rape; [4]): 4 | Rape plant response rating (rape; [5]): 9 | Rape plant response rating (rape; [6]): 0 | Plant response rating, Rape (rape; [7]): 0 | Rape plant response rating (rape; [8]): 0 | Soybean plant response rating (soybean; [1]): 4 | Soybean plant response rating (soybean; [2]): 0 | Soybean plant response rating (0 to 10 scale) (soybean; [3]): 0 | Soybean plant response rating (soybean; [4]): 0 | Soybean plant response rating (soybean; [5]): 0 | Soybean plant response rating (soybean; [6]): 3 | Plant response rating, Soybean (soybean; [7]): 4 | Soybean plant response rating (soybean; [8]): 4 | Wheat plant response rating (wheat; [2]): 0 | Wheat plant response rating (0 to 10 scale) (wheat; [3]): 0 | Wheat plant response rating (wheat; [4]): 0 | Wheat plant response rating (wheat; [5]): 0 | Plant response rating, Wheat (wheat; [7]): 0 | Wheat plant response rating (wheat; [8]): 0 | Giant foxtail plant response rating (giant foxtail; [1]): 2 | Giant foxtail plant response rating (giant foxtail; [2]): 7 | Giant foxtail plant response rating (0 to 10 scale) (giant foxtail; [3]): 7 | Giant foxtail plant response rating (giant foxtail; [4]): 9 | Giant foxtail plant response rating (giant foxtail; [5]): 9 | Giant foxtail plant response rating (giant foxtail; [6]): 0 | Plant response rating, Giant foxtail (giant foxtail; [7]): 2 | Giant foxtail plant response rating (giant foxtail; [8]): 3
